Reference: patent US6897291B1, “pH sensitive potassium channel in spermatocytes” (Icagen, Incorporated, priority 1997, dated 2005)

How the values were obtained:
[1] = target: mSlo1 (Mus musculus, UniProt Q08460); settings: mSlo1, comparison value; read-out: EC50 (sensitivity to TEA); cited from earlier work
[2] = target: T1, mSlo3 (Mus musculus, UniProt O54982, V141G); test: mSlo3 currents expressed in Xenopus oocytes, electrophysiology; format: cell-based
T1 construct: A full-length mSlo3 cDNA was cloned into pBSC-MXT; expressed in transfected cells; host or cells: Xenopus oocytes (cRNA injection)
T1 sequence (O54982 with tags, fused parts or gaps V141G limits assumed): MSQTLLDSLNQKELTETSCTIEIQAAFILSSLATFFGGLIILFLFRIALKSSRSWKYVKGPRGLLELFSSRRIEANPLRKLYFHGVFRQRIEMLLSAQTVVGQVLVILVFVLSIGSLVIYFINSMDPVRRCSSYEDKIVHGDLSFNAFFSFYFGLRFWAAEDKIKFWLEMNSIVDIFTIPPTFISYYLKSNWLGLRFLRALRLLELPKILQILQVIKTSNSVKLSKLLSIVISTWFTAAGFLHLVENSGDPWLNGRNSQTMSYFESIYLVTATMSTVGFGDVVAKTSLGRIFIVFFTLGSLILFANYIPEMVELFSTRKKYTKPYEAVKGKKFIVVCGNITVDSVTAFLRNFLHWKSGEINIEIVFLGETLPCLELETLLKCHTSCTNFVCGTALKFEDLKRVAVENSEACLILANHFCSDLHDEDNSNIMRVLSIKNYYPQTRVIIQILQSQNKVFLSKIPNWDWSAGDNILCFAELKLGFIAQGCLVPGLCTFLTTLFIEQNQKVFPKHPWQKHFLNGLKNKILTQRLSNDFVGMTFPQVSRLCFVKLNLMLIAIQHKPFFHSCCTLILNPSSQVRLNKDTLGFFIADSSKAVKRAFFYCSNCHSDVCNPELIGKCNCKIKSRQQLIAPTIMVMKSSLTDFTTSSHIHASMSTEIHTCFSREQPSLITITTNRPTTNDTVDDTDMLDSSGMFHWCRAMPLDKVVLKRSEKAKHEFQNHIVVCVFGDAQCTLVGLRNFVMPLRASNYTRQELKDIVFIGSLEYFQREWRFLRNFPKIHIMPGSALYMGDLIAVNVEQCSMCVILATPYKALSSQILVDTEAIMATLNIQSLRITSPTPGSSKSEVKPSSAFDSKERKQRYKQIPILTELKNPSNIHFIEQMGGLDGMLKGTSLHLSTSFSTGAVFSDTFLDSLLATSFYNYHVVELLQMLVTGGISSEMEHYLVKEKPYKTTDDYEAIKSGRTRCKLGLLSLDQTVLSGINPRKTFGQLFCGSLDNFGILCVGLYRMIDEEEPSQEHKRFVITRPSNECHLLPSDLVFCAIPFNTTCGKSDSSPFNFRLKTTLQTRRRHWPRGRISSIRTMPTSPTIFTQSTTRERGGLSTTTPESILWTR
Procedure: A full-length mSlo3 cDNA was cloned into pBSC-MXT, a Bluescript-derived plasmid (Stratagene) containing Xenopus β-globin 5′ and 3′ untranslated sequences. cDNA expression constructs were linearized at a unique Not-I site, and capped cRNA was synthesized using the mMessage mMachine (Ambion). Reactions were precipitated with LiCl to remove the DNA template and resuspended in nuclease-free water at a final concentration of approximately 1 mg/ml. Oocytes were prepared for injection as previously described (Wei et al., Science 248:599-603 (1990)), except for the use of a Drummond nanojector. Approximately 50 nl of RNA in nuclease-free water was injected into each oocyte. Oocytes were incubated in ND96 medium (Wei et al., 1994, supra) and analyzed 1-8 days after injection.
cRNA (40 nl at approximately […]) was injected into mature Xenopus oocytes; recordings were made 1-8 days later. For whole cell-recording, medium nd96 (concentrations in mM; 96 NaCl, 2 KCl, 1.8 CaCl2, 1 MgCl2, 5 HEPES, pH 7.5) supplemented with 1 mM DIDS (to block endogenous chloride currents) employed as bath solution, or modified as noted in figure legends. Patches were perfused with either 0 Ca^2+ EGTA solutions (160 K gluconate, 34 KOH, 10 HEPES, and 10 EGTA) or Ca^2+-containing (184 K gluconate, 10 KOH, 10 HEPES, 200 mM hemicalcium gluconate) solutions. HCl was used to adjust pH. Pipet solution contained 0.5 K gluconate, 0.5 KCl, 1.1 KOH, 10 HEPES, 159 Na gluconate, and 2 hemiMg gluconate, pH 7.1. Recording. Two-electrode voltage clamp was carried out with a TEV-200 amplifier (Dagan). Patch currents were recorded on either an Axopatch 1B or 200A amplifier (Axon), and digitized at either 3.4, 5 or 10 kHz. Data acquisition and analysis programs were CCURRENT and CQUANT (Dr. Keith Baker) or pClamp6 (Axon). Recordings were made at room temperature except tail currents which were recorded at 11° C. using a Peltier device (Cambion).

mSlo1, sequence (Q08460 whole entry): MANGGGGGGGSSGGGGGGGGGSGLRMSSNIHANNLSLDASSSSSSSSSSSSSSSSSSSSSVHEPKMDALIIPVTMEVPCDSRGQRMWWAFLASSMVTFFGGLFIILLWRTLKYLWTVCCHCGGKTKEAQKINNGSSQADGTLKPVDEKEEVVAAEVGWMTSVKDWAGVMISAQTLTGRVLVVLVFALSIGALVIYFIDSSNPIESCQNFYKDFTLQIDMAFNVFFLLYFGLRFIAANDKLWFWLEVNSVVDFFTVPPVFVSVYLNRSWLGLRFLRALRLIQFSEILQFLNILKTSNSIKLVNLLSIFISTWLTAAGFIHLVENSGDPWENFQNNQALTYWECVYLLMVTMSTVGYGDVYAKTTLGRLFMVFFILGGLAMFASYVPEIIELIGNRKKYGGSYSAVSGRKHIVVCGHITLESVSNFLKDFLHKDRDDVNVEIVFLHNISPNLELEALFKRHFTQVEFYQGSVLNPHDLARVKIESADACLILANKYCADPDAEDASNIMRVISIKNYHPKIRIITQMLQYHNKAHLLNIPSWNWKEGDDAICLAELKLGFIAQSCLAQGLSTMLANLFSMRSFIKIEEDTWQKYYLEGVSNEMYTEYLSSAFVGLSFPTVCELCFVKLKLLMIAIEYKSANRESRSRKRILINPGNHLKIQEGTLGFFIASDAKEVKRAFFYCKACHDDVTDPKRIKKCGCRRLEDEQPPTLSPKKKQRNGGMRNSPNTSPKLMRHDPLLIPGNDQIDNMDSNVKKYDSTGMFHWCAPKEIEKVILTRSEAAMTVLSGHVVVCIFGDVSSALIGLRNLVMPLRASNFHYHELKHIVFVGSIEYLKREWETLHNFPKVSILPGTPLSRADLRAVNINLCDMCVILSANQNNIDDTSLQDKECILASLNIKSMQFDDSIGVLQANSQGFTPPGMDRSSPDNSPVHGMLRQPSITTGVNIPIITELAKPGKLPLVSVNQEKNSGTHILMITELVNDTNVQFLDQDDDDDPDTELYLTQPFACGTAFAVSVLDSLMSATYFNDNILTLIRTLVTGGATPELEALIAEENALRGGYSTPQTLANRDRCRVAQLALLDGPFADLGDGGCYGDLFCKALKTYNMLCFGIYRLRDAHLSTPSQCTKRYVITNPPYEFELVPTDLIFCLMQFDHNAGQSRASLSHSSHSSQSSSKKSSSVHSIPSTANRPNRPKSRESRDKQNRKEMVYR

CC[N+](CC)(CC)CC [TEA]
EC50 [1]: < 200 µM | EC50 ([2]; mSlo3 expressed in Xenopus oocytes, read-out: EC50 (sensitivity to TEA)): ~100 mM

charybdotoxin
effect on mSlo3 currents ([2]; charybdotoxin 50 nM): did not affect

iberiotoxin (QFTDVDCSVSKECWSVCKDLFGVDRGKCMGKKCRCYQ)
effect on mSlo3 currents ([2]; iberiotoxin 20 nM): did not affect
